Measured values taken from patent publication US20220251096A1, “7,8-DIHYDRO-4H-PYRAZOLO[4,3-c]AZEPINE-6-ONE COMPOUNDS” (Eli Lilly and Company, priority 2019, published 2022).

Key:
Type in all cases: cell-based
EP300 = target: T1, EP300 (Homo sapiens, UniProt Q09472); experiment: NanoBRET assay, EP300 bromodomain; set-up: NanoLuc-EP300-BD (Promega, 0.0002 μg); host or cells: HEK293; conditions: NanoBRET in HEK293 cells, read after 4 hours incubation; mean ± Standard Deviation
T1 sequence (Q09472 1049-1156 limits assumed): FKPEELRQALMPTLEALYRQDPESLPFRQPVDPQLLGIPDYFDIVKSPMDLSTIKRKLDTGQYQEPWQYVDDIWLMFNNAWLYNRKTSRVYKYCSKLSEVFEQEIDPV
Experimental: (§1) HEK293 cells are seeded at 10×10^6 cells/16 mL in DMEM+10% FBS in a T-75 flask and left to attach for 4-6 hours. Transfection reagents are diluted in Opti-MEM media (no phenol red, no FBS) and 8% Fugene HD containing expression plasmids at a final concentration of the following: 1: Histone H3.3 HaloTag DNA (Promega, 0.02 μg)+NanoLuc-CREBBP-BD (Promega, 0.0002 μg); 2: Histone H3.3 HaloTag DNA (Promega, 0.02 μg)+NanoLuc-EP300-BD (Promega, 0.0002 μg); 3: Histone H4 HaloTag DNA (0.02 μg)+NanLuc-BRD4 Full Length (Promega, 0.0002 μg). The DNA/Fugene mixtures are left at RT for 10 minutes. Transfection mix (800 μL) is added per flask and immediately swirled to cover the cells. The plates are returned to the incubator for overnight transfection. The next day, HaloTag NanoBRET 618 ligand (20 μL/vial of 0.1 mM) is thawed at RT. […]
(§2) Compound is serially diluted and added to 96-well plates (2 10 mM, 3-fold dilutions, 100% DMSO). […] CREBBP/EP300 plates are read after 4 hours incubation and the BRD4 plates are read after overnight incubation. To develop plates for reading, allow all reagents to reach RT before use. […] The plate is shaken for 1 minute to mix and within 10 minutes, read on Envision plate reader with the following settings: Mirror: Luminescence; Emission filter: E600LP; 2nd emission filter: D460/50; Measurement height (mm): 6.5; Measurement time (s): 0.2 second.

GDM1 = experiment: Cell growth inhibition assay, GDM1; conditions: Homo sapiens, GDM-1, 168 h; GDM1, 7 days
Experimental: (§3) Tumor cell lines are plated onto 96-well, black wall poly-D-lysine plates (Corning #354640), and incubated at 37° C., 5% CO2 for 18-24 hours. Compound was added at 1:3 dilutions in DMSO and cells were incubated at 37° C., 5% CO2 for 7 days. For adherent cell lines, cells were fixed and stained with propidium iodide and scanned on Acumen (channel 3 setting). For suspension cell lines, cell growth was monitored using Cell Titer-Glo reagent.

MOLM-16 = experiment: Cell growth inhibition assay, MOLM-16; conditions: MOLM16, 168 h; MOLM-16, 7 days
Experimental: as §3

Kasumi (AML1-ETO) = experiment: Cell growth inhibition assay, Kasumi (AML1-ETO); conditions: 168 h, 7 days
Experimental: as §3

KG-1 = experiment: Cell growth inhibition assay, KG-1; conditions: Homo sapiens, 168 h; KG-1, 7 days
Experimental: as §3

hBRD4 = target: T2, hBRD4 (Homo sapiens, UniProt O60885); experiment: NanoBRET assay, BRD4 full length; conditions: NanoBRET in HEK293 cells, read after overnight incubation; mean ± Standard Deviation
T2 construct: NanLuc-BRD4 Full Length (Promega, 0.0002 μg); host or cells: HEK293
Experimental: as §1, §2

OCI-AML2 = experiment: Cell growth inhibition assay, OCI-AML2; conditions: Homo sapiens, 168 h; OCI-AML2, 7 days
Experimental: as §3

IC50 (EP300): 26.1 ± 16.5 nM
IC50 (MOLM-16): 129 nM
IC50 (hBRD4): 11800 nM
IC50 (OCI-AML2): 207 nM
SMILES: CCNC(=O)c1ccc(-c2cc3cccc(-c4nn(C)c5c4CN(C)C(=O)CC5)c3cn2)cn1 [Example 2, 5-[8-(1,5-Dimethyl-6-oxo-7,8-dihydro-4H-pyrazolo[4,3-c]azepin-3-yl)-3-isoquinolyl]-N-ethyl-pyridine-2-carboxamide]
IC50 (GDM1): 280 nM
IC50 (Kasumi (AML1-ETO)): 8 nM
IC50 (KG-1): 83 nM
